Source: patent publication US20180153995A1, “USE OF ANTIMICROBIAL POLYMERS FOR RE-SENSITIZATION OF MICROORGANISMS UPON EMERGENCE OF RESISTANCE TO ANTI-MICROBIAL AGENTS” (Technion Research & Development Foundation Limited, priority 2008, published 2018)
In brackets after ≈: the same amount, converted by molar mass. Several values for one entry are separate records, joined by “and”; a condition that tells them apart may be missing. Equal entries are not always repeated. Where two headings read alike, the source gives them in different places.

Experiments:
[1] = system: S. aureus 17314; test: Antibiotic MIC by microdilution with or without sub-MIC polymer; format: cell-based, Staphylococcus aureus
[2] = system: S. aureus 15877; test: as above; format: cell-based, Staphylococcus aureus
[3] = system: E. coli 16327; test: microbe, parasite or virus in culture; conditions: for Antibiotic MIC: E. coli 16327
Description: (§1) MICs were determined by microdilution susceptibility testing in 96-well plates (by Nunc) using inocula of 10^5 bacteria per ml. Cell populations were evaluated by optical density measurements at 620 nm and were calibrated against a set of standards. Hundred (100) μl of a bacterial suspension were added to 100 μl of culture medium (control) or to 100 μl of culture medium containing various polymer concentrations in 2-fold serial dilutions. Inhibition of proliferation was determined by optical density measurements at 620 nm after an incubation period of 24 hours at 37° C.
(§2) 100 μl of a bacterial suspension were added to 100 μl of culture medium (control) or to 100 μl of culture medium containing various antibiotic and C14(9-ene)KKNC12KNH2 (SEQ ID NO: 5) concentrations in 2-fold serial dilutions. Inhibition of proliferation was determined by optical density measurements at 620 nm after an incubation period of 24 hours at 37° C.

[4] = system: E. coli 16329; format: cell-based, Escherichia coli
Description: as §1, §2

[5] = system: S. maltophila 748; test: Antibiotic MIC by microdilution with or without sub-MIC polymer; format: cell-based, Stenotrophomonas maltophila
[6] = system: E. coli 14182; test: as above; format: cell-based, Escherichia coli
[7] = system: S. aureus 15819; test: as above; format: cell-based, Staphylococcus aureus
[8] = system: S. aureus 43300; test: as above; format: cell-based, Staphylococcus aureus
[9] = system: MRSA 15903; test: microbe, parasite or virus in culture; format: cell-based, Staphylococcus aureus
In short: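 Two-agent combinations tested against MRSA 15903; FIC index = A/MICA + B/MICB, using MICs in combination versus alone. Below 0.5 read as clear re-sensitizing, 0.5–4 marginal or null, above 4 antagonism.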

[10] = system: E. coli 14384; test: Antibiotic MIC by microdilution with or without sub-MIC polymer; format: cell-based, Escherichia coli; conditions: E. coli 14384; for Antibiotic MIC: no polymer (None)
Description: as §1, §2

[11] = +¼ MIC (1.6 μM) C12(5-ene)KKNC12KNH2
[12] = +⅓ MIC (2.1 μM) C12(5-ene)KKNC12KNH2
[13] = +½ MIC (3.12 μM) C12K(KNC12K)2NH2

O=C(O)c1cn(C2CC2)c2cc(N3CCNCC3)c(F)cc2c1=O [Ciprofloxacin, ciprofloxacin]
Antibiotic MIC [1]: 128 µg/mL
Antibiotic MIC ([1]; S. aureus 17314, +¼ MIC (1.6 μM) C12K(KNC12K)2NH2): 128 µg/mL
Antibiotic MIC ([1]; S. aureus 17314, +¼ MIC (1.6 μM) C14(9-ene)KKNC12KNH2): 64 µg/mL
Antibiotic MIC ([1]; S. aureus 17314, +¼ MIC (1.6 μM) C16(9-ene)KKNC12KNH2): 32 µg/mL
Antibiotic MIC ([1]; S. aureus 17314, +½ MIC (3.12 μM) C12K(KNC12K)2NH2): 64 µg/mL
Antibiotic MIC ([1]; S. aureus 17314, +½ MIC (3.12 μM) C12KKNC12KNH2): 64 µg/mL
Antibiotic MIC ([1]; S. aureus 17314, +½ MIC (3.12 μM) C14(9-ene)KKNC12KNH2): 64 µg/mL
Antibiotic MIC ([1]; S. aureus 17314, +½ MIC (3.12 μM) C16(9-ene)KKNC12KNH2): 16 µg/mL
Antibiotic MIC ([1]; S. aureus 17314, +⅓ MIC (2.1 μM) C12K(KNC12K)2NH2): 64 µg/mL
Antibiotic MIC ([1]; S. aureus 17314, +⅓ MIC (2.1 μM) C12KKNC12KNH2): 64 µg/mL
Antibiotic MIC ([1]; S. aureus 17314, +⅓ MIC (2.1 μM) C14(9-ene)KKNC12KNH2): 64 µg/mL
Antibiotic MIC ([1]; S. aureus 17314, +⅓ MIC (2.1 μM) C16(9-ene)KKNC12KNH2): 32 µg/mL
Antibiotic MIC ([1]; S. aureus 17314, no polymer (None), Table 9): 64 µg/mL
Antibiotic MIC ([1]; S. aureus 17314, no polymer (None), Table 10): 64 µg/mL
Antibiotic MIC ([1]; S. aureus 17314, no polymer (None), Table 11): 128 µg/mL
Antibiotic MIC ([1]; S. aureus 17314, no polymer (None), Table 12): 128 µg/mL
Antibiotic MIC [2, 11]: 4 µg/mL
Antibiotic MIC ([2]; +½ MIC (3.12 μM) C12(5-ene)KKNC12KNH2): 4 µg/mL
Antibiotic MIC [2, 12]: 4 µg/mL
Antibiotic MIC ([2]; no polymer (None), Table 8): 4 µg/mL
Antibiotic MIC ([3]; +¼ MIC (1.6 μM) C12K(KNC12K)2NH2): >512 µg/mL
Antibiotic MIC [3, 13]: 128 µg/mL
Antibiotic MIC ([3]; +½ MIC (3.12 μM) C14(9-ene)KKNC12KNH2): 32 to 64 µg/mL
Antibiotic MIC ([3]; +⅓ MIC (2.1 μM) C12K(KNC12K)2NH2): >512 µg/mL
Antibiotic MIC ([3]; no polymer (None), Table 9): >512 µg/mL
Antibiotic MIC ([3]; no polymer (None), Table 10): >512 µg/mL
Antibiotic MIC ([3]; no polymer (None), Table 12): >512 µg/mL
MIC, ¼ + MIC OAK ([3]; E. coli U16327, with C12K(KNC10K)3NH2 (SEQ ID NO: 10) at ¼ of its MIC): 128 to 256 µg/mL
MIC, ½ + MIC OAK ([3]; E. coli U16327, with C12K(KNC10K)3NH2 (SEQ ID NO: 10) at ½ of its MIC): 128 µg/mL
MIC, ⅓ + MIC OAK ([3]; E. coli U16327, with C12K(KNC10K)3NH2 (SEQ ID NO: 10) at ⅓ of its MIC): 128 µg/mL
Antibiotic MIC, None ([3]; E. coli U-16327, antibiotic alone (Table 15)): 128 to 256 µg/mL
Antibiotic MIC in presence of C12K(NC8K)7NH2 (SEQ ID NO: 4), +¼ MIC ([3]; E. coli U-16327, polymer at ¼ of its MIC): 64 to 128 µg/mL
Antibiotic MIC in presence of C12K(NC8K)7NH2 (SEQ ID NO: 4), +½ MIC ([3]; E. coli U-16327, polymer at ½ of its MIC): 16 µg/mL
Antibiotic MIC in presence of C12K(NC8K)7NH2 (SEQ ID NO: 4), +⅓ MIC ([3]; E. coli U-16327, polymer at ⅓ of its MIC): 32 to 64 µg/mL
MIC ([3]; Escherichia coli, 16327, read-out: MIC, Alone): 256 µg/mL (≈ 773 µM)
Antibiotic MIC ([4]; E. coli 16329, +¼ MIC (1.6 μM) C16(9-ene)KKNC12KNH2): 64 µg/mL
Antibiotic MIC ([4]; E. coli 16329, +½ MIC (3.12 μM) C16(9-ene)KKNC12KNH2): 64 µg/mL
Antibiotic MIC ([4]; E. coli 16329, +⅓ MIC (2.1 μM) C16(9-ene)KKNC12KNH2): 64 µg/mL
Antibiotic MIC ([4]; E. coli 16329, no polymer (None), Table 10): 64 µg/mL
Antibiotic MIC ([4]; E. coli U-16329, +¼ MIC C12K(NC8K)5NH2): 64 µg/mL
Antibiotic MIC ([4]; E. coli U-16329, +½ MIC C12K(NC8K)5NH2): 32 µg/mL
Antibiotic MIC ([4]; E. coli U-16329, +⅓ MIC C12K(NC8K)5NH2): 64 µg/mL
Antibiotic MIC, None ([4]; E. coli U-16329, antibiotic alone (Table 15)): 64 µg/mL
Antibiotic MIC ([4]; E. coli U-16329, no polymer (None), Table 14): 64 µg/mL
Antibiotic MIC in presence of C12K(NC8K)7NH2 (SEQ ID NO: 4), +¼ MIC ([4]; E. coli U-16329, polymer at ¼ of its MIC): 64 to 128 µg/mL
Antibiotic MIC in presence of C12K(NC8K)7NH2 (SEQ ID NO: 4), +½ MIC ([4]; E. coli U-16329, polymer at ½ of its MIC): 64 µg/mL
Antibiotic MIC in presence of C12K(NC8K)7NH2 (SEQ ID NO: 4), +⅓ MIC ([4]; E. coli U-16329, polymer at ⅓ of its MIC): 64 µg/mL
Antibiotic MIC ([5]; +¼ MIC (1.6 μM) C12K(KNC12K)3NH2): 8 µg/mL
Antibiotic MIC ([5]; +½ MIC (3.12 μM) C12K(KNC12K)3NH2): 2 µg/mL
Antibiotic MIC ([5]; +⅓ MIC (2.1 μM) C12K(KNC12K)3NH2): 4 to 8 µg/mL
Antibiotic MIC ([5]; no polymer (None), Table 13): 8 µg/mL
Antibiotic MIC, None ([6]; antibiotic alone (Table 15)): <0.03 µg/mL
Antibiotic MIC ([6]; no polymer (None), Table 14): <0.03 µg/mL
Antibiotic MIC [7]: 0.125 µg/mL and 0.125 to 0.25 µg/mL
Antibiotic MIC ([7]; S. aureus 15819, +¼ MIC (1.6 μM) C12K(KNC12K)3NH2): 0.125 µg/mL
Antibiotic MIC ([7]; S. aureus 15819, +½ MIC (3.12 μM) C12K(KNC12K)3NH2): 0.06 µg/mL
Antibiotic MIC ([7]; S. aureus 15819, +⅓ MIC (2.1 μM) C12K(KNC12K)3NH2): 0.125 µg/mL
Antibiotic MIC ([7]; S. aureus 15819, no polymer (None), Table 8): 0.125 to 0.25 µg/mL
Antibiotic MIC ([7]; S. aureus 15819, no polymer (None), Table 11): 0.125 to 0.25 µg/mL
Antibiotic MIC ([7]; S. aureus 15819, no polymer (None), Table 13): 0.25 µg/mL
Antibiotic MIC [8, 11]: 0.25 µg/mL
Antibiotic MIC ([8]; +¼ MIC (1.6 μM) C12KKNC12KNH2): 0.5 µg/mL
Antibiotic MIC ([8]; +¼ MIC (1.6 μM) C16(9-ene)KKNC12KNH2): 0.25 µg/mL
Antibiotic MIC [8, 13]: 0.13 to 0.25 µg/mL
Antibiotic MIC ([8]; +½ MIC (3.12 μM) C12KKNC12KNH2): 0.25 µg/mL
Antibiotic MIC ([8]; +½ MIC (3.12 μM) C16(9-ene)KKNC12KNH2): 0.125 µg/mL
Antibiotic MIC [8, 12]: 0.125 µg/mL
Antibiotic MIC ([8]; +⅓ MIC (2.1 μM) C12KKNC12KNH2): 0.5 µg/mL
Antibiotic MIC ([8]; +⅓ MIC (2.1 μM) C16(9-ene)KKNC12KNH2): 0.25 µg/mL
MIC ([9]; MRSA 15903, +¼ polymer MIC (1.6 μM) NC12(KNC12K)2NH2): 32 µg/mL
MIC ([9]; MRSA 15903, +½ polymer MIC (3.1 μM) NC12(KNC12K)2NH2): 1 µg/mL
MIC ([9]; MRSA 15903, +⅓ polymer MIC (2.1 μM) NC12(KNC12K)2NH2): 16 µg/mL
MIC, ¼ + MIC OAK ([9]; MRSA 15903, with C12K(KNC10K)3NH2 (SEQ ID NO: 10) at ¼ of its MIC): 128 µg/mL
MIC, ½ + MIC OAK ([9]; MRSA 15903, with C12K(KNC10K)3NH2 (SEQ ID NO: 10) at ½ of its MIC): 64 µg/mL
MIC, ⅓ + MIC OAK ([9]; MRSA 15903, with C12K(KNC10K)3NH2 (SEQ ID NO: 10) at ⅓ of its MIC): 128 µg/mL
MIC ([9]; S. aureus CI-15903, +polymer (¼ MIC) C12(5-ene)KKNC12KNH2): 32 µg/mL
MIC ([9]; S. aureus CI-15903, +polymer (½ MIC) C12(5-ene)KKNC12KNH2): 0.25 µg/mL
MIC ([9]; S. aureus CI-15903, +polymer (⅓ MIC) C12(5-ene)KKNC12KNH2): 4 µg/mL
MIC ([9]; Staphylococcus aureus, MRSA, 24 h, MRSA 15903, antibiotic alone (Table 22), read-out: MIC, Alone): 256 µg/mL
MIC ([9]; Staphylococcus aureus, MRSA, 24 h, MRSA 15903, antibiotic alone, read-out: MIC): 64 µg/mL
MIC ([9]; Staphylococcus aureus, MRSA, 24 h, S. aureus CI-15903, alone, read-out: MIC): 64 µg/mL
Antibiotic MIC, None ([10]; antibiotic alone (Table 15)): <0.03 µg/mL
Antibiotic MIC ([10]; Table 9): <0.03 µg/mL
Antibiotic MIC ([10]; Table 14): <0.03 µg/mL
